Test results as given in patent US9308198B2, “Treatment, prevention, and reversal of alcohol-induced brain disease” (priority 2006, dated 2016).

Assays:
Assay in all cases: Equilibrium binding assay, primary cerebellar neuron cultures
Assay type in all cases: cell-based, rat
IGF-II receptor = system: IGF-II receptor
Experimental: (§1) Fresh frozen tissue (˜100 mg) was homogenized in 5 volumes of NP-40 lysis buffer (50 mM Tris-HCl, pH 7.5, 1% NP-40, 150 mM NaCl, 1 mM EDTA, 2 mM EGTA) containing protease inhibitors (1 mM PMSF, 0.1 mM TPCK, 1 μg/ml aprotinin, 1 μg/ml pepstatin A, 0.5 μg/ml leupeptin, 1 mM NaF, 1 mM Na4P2O7). Protein concentrations were determined using the bicinchoninic acid (BCA) assay (Pierce, Rockford, Ill.). Exploratory studies determined the amounts of protein and concentrations of radiolabeled ligand required to achieve 20% specific binding. Insulin receptor binding assays were performed using 100 μg protein. IGF-I binding assays required 25 μg protein per sample, and IGF-II receptor binding assays were optimized using 10 μg protein. Competitive equilibrium binding assays were used to assess growth factor binding in relation to ethanol exposure. For total binding, duplicate individual protein samples were incubated in 100 μl reactions containing binding buffer (100 mM HEPES, pH 8.0, 118 mM NaCl, 1.2 mM MgSO4, 8.8 mM dextrose, 5 mM KCl, 1% bovine serum albumin) and 100 nCi/ml of [^125I] (2000 Ci/mmol; […]) insulin, IGF-I, or IGF-II. To measure non-specific binding, replicate samples were identically prepared but with the addition of 0.1 μM unlabeled (cold) ligand.
(§2) All reactions were performed in 1.5 ml Eppendorff tubes, and the incubations were performed at 4° C. for 16 hours with gentle platform agitation. Bound radiolabeled tracer was then precipitated by adding 500 μl of 0.15% bovine gamma globulin (prepared in 100 mM Tris-HCl, pH 8.0) followed by 400 μl 37.5% polyethylene glycol 8000 (PEG-8000; prepared in 100 mM Tris-HCl, pH 8.0) to each tube. The samples were thoroughly mixed by vortexing, and then incubated on ice for at least 2 hours. The precipitates were collected by centrifuging the samples at 15,000×g for 5 minutes at room temperature. The supernatant fraction, which contained unbound (free) ligand, was transferred in its entirety to a Gamma counting tube (Sarstedt, Newton, N.C.). The Eppendorff tube tip containing the pellet was cut and released directly into a separate Gamma counting tube. The samples were counted for 1 minute in an LKB CompuGamma CS Gamma counter. Specific binding was calculated by subtracting fmol of non-specific binding, i.e., amount bound in the presence of cold ligand, from the total fmol bound (absence of unlabeled competitive ligand). The results were analyzed and plotted using the GraphPad Prism 4 software (GraphPad Software, Inc., San Diego, Calif.).
(§3) In vitro experiments were used to examine the effects of ethanol on receptor binding and choline acetyltransferase (ChAT) and acetylcholinesterase (AChE) expression in cerebellar neurons. Primary neuronal cultures were generated with postnatal day 8 rat pup cerebellar tissue (Nikolic et al. Genes Dev. 10:816 (1996)). The cultures were maintained with Dulbecco's modified Eagle's medium (DMEM) supplemented with 5% fetal calf serum, 4 mM glutamine, 100 μM non-essential amino acid mixture (Gibco-BRL, Grand Island, N.Y.), 25 mM KCl, and 9 g/L glucose. […] Alcohol Clin. Exp. Res. 24:716 (2000); Banerjee et al. Alcohol Clin. Exp. Res. 22:2093 (1998)). Control cultures were identically treated but with water added to the reservoir tray. The chambers were flushed with gas containing 75% nitrogen, 20% oxygen, and 5% carbon dioxide. […] Alternatively, the cells were serum-starved for 12 hours and then stimulated with 10 nM insulin, […], 25 nM IGF-II, or vehicle for 16 hours, and RNA was harvested to measure ChAT and AChE expression.

insulin receptor = system: insulin receptor
Experimental: as §1, §2, §3

IGF-I receptor = system: IGF-I receptor
Experimental: as §1
All reactions were performed in 1.5 ml Eppendorff tubes, and the incubations were performed at 4° C. for 16 hours with gentle platform agitation. Bound radiolabeled tracer was then precipitated by adding 500 μl of 0.15% bovine gamma globulin (prepared in 100 mM Tris-HCl, pH 8.0) followed by 400 μl 37.5% polyethylene glycol 8000 (PEG-8000; prepared in 100 mM Tris-HCl, pH 8.0) to each tube. […] The samples were counted for 1 minute in an LKB CompuGamma CS Gamma counter. Specific binding was calculated by subtracting fmol of non-specific binding, i.e., amount bound in the presence of cold ligand, from the total fmol bound (absence of unlabeled competitive ligand). The results were analyzed and plotted using the GraphPad Prism 4 software (GraphPad Software, Inc., San Diego, Calif.). […]

[1] = 10 mM for 3 hours, control cerebellar neurons
[2] = 50 mM ethanol for 96 hours vs control cultures
[3] = 10 mM for 3 hours, control and ethanol-exposed cultures, relative to vehicle-treated cells

For CC(C)CCC[C@@H](C)[C@H]1CC[C@H]2[C@@H]3CC=C4C[C@@H](O)CC[C@]4(C)[C@H]3CC[C@]12C [cholesterol], the IGF-II receptor binding (IGF-II receptor; [1]) was “significantly impaired”, the insulin receptor binding (insulin receptor; 10 mM for 3 hours, control cells) was “no significant effect” and the insulin-receptor binding (insulin receptor; 10 mM for 3 hours, ethanol-treated cells) was “enhanced”. The IGF-I receptor binding (IGF-I receptor; [1]) was “significantly impaired”.
For CCO [ethanol], the IGF-II receptor binding (IGF-II receptor; [2]) was “significantly reduced”, the insulin receptor binding (insulin receptor; [2]) was “significantly reduced” and the IGF-I receptor binding (IGF-I receptor; [2]) was “significantly reduced”.
With Methyl-β-cyclodextrin [MβCD] the IGF-II receptor binding (IGF-II receptor; [3]) was “significantly inhibited”, the insulin receptor binding (insulin receptor; [3]) was “significantly inhibited” and the IGF-I receptor binding (IGF-I receptor; [3]) was “significantly inhibited”.
